Source: patent US9499550B2 (BRISTOL-MYERS SQUIBB COMPANY, priority 2012, dated 2016)
Like-named read-outs stand apart in the source and are kept apart here.

What was measured:
[1] = tested on: HCV genotype 1a (H77 strain) replicon in HUH-7 cells; assay: HCV replicon luciferase reporter assay, genotype 1a; assay type: cell-based; conditions: Hepatitis C virus, Huh-7, 72 h, 3 days incubation
Outline: (§1)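 Replicon inhibition for both genotypes was measured as Renilla luciferase signal (EnduRen, 7.5 μM final, 2 h) after 3-day, 37° C exposure of replicon-bearing HUH-7 cells in 4% FCS DMEM, 0.5% DMSO. The 1b construct carries S1179I; the 1a H77 construct carries P1496L and S2204I. Twenty-point, 3-fold dilutions were fitted four-parametrically for EC50, and CC50 was taken from multiplexed Cell Titer-Blue.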

[2] = tested on: HCV genotype 1b (Con1) replicon in HUH-7 cells; assay: HCV replicon luciferase reporter assay, genotype 1b; assay type: cell-based; conditions: Hepatitis C virus, Huh-7, 72 h, 3 days incubation
Outline: as §1

[3] = HCV genotype 1a replicon luciferase assay, range class, read-out: LE_1a (EC50, range)
[4] = HCV genotype 1b replicon luciferase assay, range class, read-out: LE_1b (EC50, range)
[5] = HCV genotype 1a replicon luciferase, read-out: LE_1a (EC50, range)
[6] = HCV genotype 1b replicon luciferase, read-out: LE_1b (EC50, range)

Structure (SMILES)	EC50 [1, 3]	EC50 [2, 4]	EC50 [1, 5]	EC50 [2, 6]	other results
COc1ccc2c(O[C@@H]3C[C@H]4C(=O)N[C@]5(C(=O)NS(=O)(=O)C6(CF)CC6)C[C@H]5/C=C\CC[C@H](C)C[C@@H](C)[C@H](NC(=O)OC(C)(C)C)C(=O)N4C3)nc(N(C)C)nc2c1 [Compound 3005, tert-butyl ((2R,6S,7R,9S,13aS,14aR,16aS,Z)-2-((2-(dimethylamino)-7-methoxyquinazolin-4-yl)oxy)-14a-(((1-(fluoromethyl)cyclopropyl)sulfonyl)carbamoyl)-7,9-dimethyl-5,16-dioxo-1,2,3,5,6,7,8,9,10,11,13a,14,14a,15,16,16a-hexadecahydrocyclopropa[e]pyrrolo[1,2-a][1,4]diazacyclopentadecin-6-yl)carbamate]	4.82 to 103 nM	4.82 to 103 nM	–	–	–
CCOc1cc2ccnc(O[C@@H]3C[C@H]4C(=O)N[C@]5(C(=O)NS(=O)(=O)C6(CF)CC6)C[C@H]5/C=C\CC[C@@H](C)C[C@@H](C)[C@H](NC(=O)OC(C)(C)C(C)(F)F)C(=O)N4C3)c2cc1F [Compound 5415, 3,3-difluoro-2-methylbutan-2-yl((2R,6S,7R,9R,13aS,14aR,16aS,Z)-2-((6-ethoxy-7-fluoroisoquinolin-1-yl)oxy)-14a-(((1-(fluoromethyl)cyclopropyl)sulfonyl)carbamoyl)-7,9-dimethyl-5,16-dioxo-1,2,3,5,6,7,8,9,10,11,13a,14,14a,15,16,16a-hexadecahydrocyclopropa[e]pyrrolo[1,2-a][1,4]diazacyclopentadecin-6-yl)carbamate]	–	–	1.01 to 5 nM	0.51 to 1 nM	–
CC[C@@H]1C[C@H](C)CC/C=C\[C@@H]2C[C@@]2(C(=O)NS(=O)(=O)C2(C)CC2)NC(=O)[C@@H]2C[C@@H](Oc3cnc4ccc(OC)cc4c3)CN2C(=O)[C@H]1NC(=O)OC(C)(C)C [Compound 4201, tert-butyl (2R,6S,7R,9R,13aS,14aR,16aS,Z)-7-ethyl-2-(6-methoxyquinolin-3-yloxy)-9-methyl-14a-(1-methylcyclopropylsulfonylcarbamoyl)-5,16-dioxo-1,2,3,5,6,7,8,9,10,11,13a,14,14a,15,16,16a-hexadecahydrocyclopropa[e]pyrrolo[1,2-a][1,4]diazacyclopentadecin-6-ylcarbamate]	–	–	< 5.46 nM	< 5.46 nM	–
[2H]C([2H])([2H])C(OC(=O)N[C@@H]1C(=O)N2C[C@H](Oc3nc(-c4ccc(OC(C)C)cn4)cc4cc(OC)ccc34)C[C@H]2C(=O)N[C@]2(C(=O)NS(=O)(=O)C3CC3)C[C@H]2/C=C\CC[C@H](C)C[C@H]1C)(C([2H])([2H])[2H])C(F)(F)F [Compound 5204, 1,1,1,3,3,3-hexadeutero-2-(trifluoromethyl)propan-2-yl((2R,6S,7R,9S,13aS,14aR,16aS,Z)-14a-((cyclopropylsulfonyl)carbamoyl)-2-((3-(5-isopropoxypyridin-2-yl)-6-methoxyisoquinolin-1-yl)oxy)-7,9-dimethyl-5,16-dioxo-1,2,3,5,6,7,8,9,10,11,13a,14,14a,15,16,16a-hexadecahydrocyclopropa[e]pyrrolo[1,2-a][1,4]diazacyclopentadecin-6-yl)carbamate]	–	–	< 5.46 nM	< 5.46 nM	–
COc1cnc(O[C@@H]2C[C@H]3C(=O)N[C@]4(C(=O)NS(=O)(=O)C5(F)CC5)C[C@H]4/C=C\CC[C@H](C)C[C@@H](C)[C@H](NC(=O)OC(C)(C)C)C(=O)N3C2)c2cc(F)ccc12 [Compound 4046, tert-butyl (2R,6S,7R,9S,13aS,14aR,16aS,Z)-2-(7-fluoro-4-methoxyisoquinolin-1-yloxy)-14a-(1-fluorocyclopropylsulfonylcarbamoyl)-7,9-dimethyl-5,16-dioxo-1,2,3,5,6,7,8,9,10,11,13a,14,14a,15,16,16a-hexadecahydrocyclopropa[e]pyrrolo[1,2-a][1,4]diazacyclopentadecin-6-ylcarbamate]	–	–	4.82 to 103 nM	4.82 to 103 nM	–
COc1cnc(O[C@@H]2C[C@H]3C(=O)N[C@]4(C(=O)NS(=O)(=O)C5(C)CC5)C[C@H]4/C=C\CC[C@@H](C)C[C@@H](C)[C@H](NC(=O)OC(C)(C)C)C(=O)N3C2)c2ccc(N(C)C)cc12 [Compound 3136, tert-butyl ((2R,6S,7R,9R,13aS,14aR,16aS,Z)-2-((6-(dimethylamino)-4-methoxyisoquinolin-1-yl)oxy)-7,9-dimethyl-14a-(((1-methylcyclopropyl)sulfonyl)carbamoyl)-5,16-dioxo-1,2,3,5,6,7,8,9,10,11,13a,14,14a,15,16,16a-hexadecahydrocyclopropa[e]pyrrolo[1,2-a][1,4]diazacyclopentadecin-6-yl)carbamate]	< 5.46 nM	< 5.46 nM	–	–	–
CCOc1cnc(O[C@@H]2C[C@H]3C(=O)N[C@]4(C(=O)NS(=O)(=O)C5(C)CC5)C[C@H]4/C=C\CC[C@@H](C)C[C@@H](C)[C@H](NC(=O)OC(C)(C)C(F)(F)F)C(=O)N3C2)c2ccccc12 [Compound 4041]	–	–	–	–	EC50 ([1]; GETYPE1A, HCV genotype 1a replicon luciferase, read-out: LE_1a (EC50, range)): < 5.46 nM; EC50 ([2]; GETYPE1B, HCV genotype 1b replicon luciferase, read-out: LE_1b (EC50, range)): < 5.46 nM
CC[C@@H]1C[C@H](C)CC/C=C\[C@@H]2C[C@@]2(C(=O)NS(=O)(=O)C2(CF)CC2)NC(=O)[C@@H]2C[C@@H](Oc3ncc(N4CCOCC4)c4ccccc34)CN2C(=O)[C@H]1NC(=O)OC(C)(C)C(F)(F)F [Compound 5445, 1,1,1-trifluoro-2-methylpropan-2-yl((2R,6S,7R,9R,13aS,14aR,16aS,Z)-7-ethyl-14a-(((1-(fluoromethyl)cyclopropyl)sulfonyl)carbamoyl)-9-methyl-2-((4-morpholinoisoquinolin-1-yl)oxy)-5,16-dioxo-1,2,3,5,6,7,8,9,10,11,13a,14,14a,15,16,16a-hexadecahydrocyclopropa[e]pyrrolo[1,2-a][1,4]diazacyclopentadecin-6-yl)carbamate]	–	–	1.01 to 5 nM	1.01 to 5 nM	–
C[C@H]1CC/C=C\[C@@H]2C[C@@]2(C(=O)NS(=O)(=O)C2(C)CC2)NC(=O)[C@@H]2C[C@@H](Oc3nccc4c5c(ccc34)OCCO5)CN2C(=O)[C@@H](NC(=O)O[C@H](C)C(F)(F)F)[C@H](C)C1 [Compound 5252, (R)-1,1,1-trifluoropropan-2-yl ((2R,6S,7R,9S,13aS,14aR,16aS,Z)-2-((2,3-dihydro-[1,4]dioxino[2,3-f]isoquinolin-7-yl)oxy)-7,9-dimethyl-14a-(((1-methylcyclopropyl)sulfonyl)carbamoyl)-5,16-dioxo-1,2,3,5,6,7,8,9,10,11,13a,14,14a,15,16,16a-hexadecahydrocyclopropa[e]pyrrolo[1,2-a][1,4]diazacyclopentadecin-6-yl)carbamate]	–	–	4.82 to 103 nM	< 5.46 nM	EC50 ([1]; HCV genotype 1a replicon luciferase, read-out: LE_1a (EC50)): 15.1 nM; EC50 ([2]; HCV genotype 1b replicon luciferase, read-out: LE_1b (EC50)): 4.04 nM
COc1cnc(O[C@@H]2C[C@H]3C(=O)N[C@]4(C(=O)NS(=O)(=O)C5(CF)CC5)C[C@H]4/C=C\CC[C@@H](C)C[C@@H](C)[C@H](NC(=O)OC4(C)CCCOC4)C(=O)N3C2)c2ccccc12 (stereo partly drawn) [Compound 1056, 3-methyltetrahydro-2H-pyran-3-yl((2R,6S,7R,9R,13aS,14aR,16aS,Z)-14a-(((1-(fluoromethyl)cyclopropyl)sulfonyl)carbamoyl)-2-((4-methoxyisoquinolin-1-yl)oxy)-7,9-dimethyl-5,16-dioxo-1,2,3,5,6,7,8,9,10,11,13a,14,14a,15,16,16a-hexadecahydrocyclopropa[e]pyrrolo[1,2-a][1,4]diazacyclopentadecin-6-yl)carbamate]	< 5.46 nM	< 5.46 nM	–	–	–
CC(C)Oc1cc2c(Cl)cccc2c(O[C@@H]2C[C@H]3C(=O)N[C@]4(C(=O)NS(=O)(=O)C5CC5)C[C@H]4/C=C\CC[C@H](C)C[C@@H](C)[C@H](NC(=O)OC(C)(C)C(C)(F)F)C(=O)N3C2)n1 [Compound 1105, 3,3-difluoro-2-methylbutan-2-yl((2R,6S,7R,9S,13aS,14aR,16aS,Z)-2-((5-chloro-3-isopropoxyisoquinolin-1-yl)oxy)-14a-((cyclopropylsulfonyl)carbamoyl)-7,9-dimethyl-5,16-dioxo-1,2,3,5,6,7,8,9,10,11,13a,14,14a,15,16,16a-hexadecahydrocyclopropa[e]pyrrolo[1,2-a][1,4]diazacyclopentadecin-6-yl)carbamate]	< 5.46 nM	< 5.46 nM	–	–	–
CC[C@@H]1C[C@@H](C)CC/C=C\[C@@H]2C[C@@]2(C(=O)NS(=O)(=O)C2(C)CC2)NC(=O)[C@@H]2C[C@@H](Oc3nccc4c(OC)cccc34)CN2C(=O)[C@H]1NC(=O)OC(C)(C)C [Compound 3023, tert-butyl ((2R,6S,7R,9S,13aS,14aR,16aS,Z)-7-ethyl-2-((5-methoxyisoquinolin-1-yl)oxy)-9-methyl-14a-(((1-methylcyclopropyl)sulfonyl)carbamoyl)-5,16-dioxo-1,2,3,5,6,7,8,9,10,11,13a,14,14a,15,16,16a-hexadecahydrocyclopropa[e]pyrrolo[1,2-a][1,4]diazacyclopentadecin-6-yl)carbamate]	4.82 to 103 nM	4.82 to 103 nM	–	–	–
